Reference: patent publication EP1142587A1 (priority 1998, dated 2000)

Columns and labels:
[1] = molecular target: T1, dopamine D2 receptor (Rattus norvegicus, UniProt P61169); assay: biochemical; type: binding
T1 construct: A membrane fraction obtained from rat corpus striatum was prepared as a membrane fraction of a dopamine D2 receptor; from tissue; host or cells: rat corpus striatum membrane fraction

[2] = test system: mouse; assay: Anti-dopamine action against apomorphine-induced climbing behavior; type: in vivo; conditions: for Wall climbing behavior: apomorphine (2mg/kg, s.c.) + test substance; for ED50: sc, apomorphine 2mg/kg s.c. 10 minutes after test drug, climbing measured from 20 minutes after apomorphine for 1 minute, read-out: ED50 value regarding anti-dopamine action
Source text: The term "a compound having dopamine D2 receptor antagonist activity" is used herein to mean a compound showing a binding affinity in a D2 receptor membrane binding test, and also showing inhibiting effect to apomorphine-induced climbing behavior.
The administration of dopamine receptor agonists, apomorphine induces a continual climbing behavior in mice. A test for competitive action against this effect is generally used as a method for detecting the dopamine receptor antagonist. A mouse was put into a cylindrical wire gauze (10 cm diameter × 14cm height) and allowed to habituate itself with the circumstances for about 1 hour. Apomorphine (2mg/kg, s.c.) was administered to the mouse at 10 minutes after the administration of the test drug, and from 20 minutes after the administration of apomorphine, its climbing behavior (which means the period during which all four legs of the mouse have left from the ground) was measured for 1 minute. Furthermore, a sigmoid curve was determined from dose response by a method of least squares, and ED50 value was calculated.

[3] = test system: Mice; conditions: mouse, in vivo, ip
[4] = test system: Sprague-Dawley rats; conditions: rat, in vivo
[5] = test system: ddY male mice; assay: animal or person; type: in vivo; conditions: Mus musculus, ip, 0.5 h, read-out: ED50 value regarding analgetic effect

T1 sequence (P61169 whole entry): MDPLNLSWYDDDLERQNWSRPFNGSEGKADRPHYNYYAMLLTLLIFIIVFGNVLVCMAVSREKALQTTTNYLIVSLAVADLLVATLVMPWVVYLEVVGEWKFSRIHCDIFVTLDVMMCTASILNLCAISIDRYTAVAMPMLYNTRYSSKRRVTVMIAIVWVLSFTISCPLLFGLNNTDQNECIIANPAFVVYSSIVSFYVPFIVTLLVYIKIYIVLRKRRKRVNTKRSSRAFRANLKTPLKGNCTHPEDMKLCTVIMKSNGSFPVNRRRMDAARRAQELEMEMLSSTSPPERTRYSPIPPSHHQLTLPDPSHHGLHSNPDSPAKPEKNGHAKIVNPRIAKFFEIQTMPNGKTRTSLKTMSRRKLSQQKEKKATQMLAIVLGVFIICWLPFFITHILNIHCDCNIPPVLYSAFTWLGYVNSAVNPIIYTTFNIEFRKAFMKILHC

Structure (SMILES) | Ki [1] | Wall climbing behavior [2] | ED50 [2] | effect on locomotor activity [3] | position palatability (psychological dependence / aversive effect) [4] | ED50 [5]
N=C1OC2(CCN(Cc3ccc(Cl)nc3)CC2)c2c1ccc1ccccc21 [Example 1, 1'-(6-chloro-3-pyridyl)methyl(benzo[g]1,3-dihydroisobenzofuran-1-spiro-4'-piperidine)-3-imine] | 230 nM |  |  |  |  | 
O=C1OC2(CCN(Cc3ccc(Cl)nc3)CC2)c2c1ccc1ccccc21 [Example 2, 1'-(6-chloro-3-pyridyl)methyl(benzo[g]1,3-dihydroisobenzofuran-1-spiro-4'-piperidine)-3-on] | 532 nM |  |  |  |  | 
O=C1OC2(CCN(Cc3ccc(Cl)nc3)CC2)c2cc3ccccc3cc21 [Example 3, 1'-(6-chloro-3-pyridyl)methyl(benzo[f]1,3-dihydroisobenzofuran-1-spiro-4'-piperidine)-3-on] | 1590 nM |  |  |  |  | 
O=C1OC2(CCN(Cc3ccccc3)CC2)c2c1ccc1ccccc21 [Example 11, 1'-benzyl(benzo[g]1,3-dihydroisobenzofuran-1-spiro-4'-piperidine)-3-on] | 177 nM |  |  |  |  | 
COc1ccc(CN2CCC3(CC2)C(=O)NCN3c2ccccc2)cc1 [Example 14, 1'-(4-methoxybenzyl)-spiroimidazolidine-4,4'-piperidine-3-phenyl-5-on] | 20 nM | inhibitory effect | 2.22 mg/kg | no effect on locomotor activity | neither psychological dependence nor aversive effects | 
O=C1NCN(c2ccccc2)C12CCN(Cc1ccc(Cl)nc1)CC2 [Example 15, 1'-(6-chloro-3-pyridyl)methyl-spiroimidazolidine-4,4'-piperidine-3-phenyl-5-on] | 3.6 nM | inhibitory effect | 1.22 mg/kg | no effect on locomotor activity |  | 
Cc1ccc(CN2CCC3(CC2)C(=O)NCN3c2ccccc2)cn1 [Example 16, 1'-(6-methyl-3-pyridyl)methyl-spiroimidazolidine-4,4'-piperidine-3-phenyl-5-on] | 17 nM | inhibitory effect | 11.9 mg/kg | no effect on locomotor activity | neither psychological dependence nor aversive effects | 
O=C1NCN(c2ccccc2)C12CCN(Cc1cccnc1)CC2 [Example 17, 1'-(3-pyridyl)methyl-spiroimidazolidine-4,4'-piperidine-3-phenyl-5-on] | 457 nM |  |  | no effect on locomotor activity |  | 
O=C1NCN(c2ccccc2)C12CCN(Cc1ccc(Br)cc1)CC2 [Example 18, 1'-(4-bromobenzyl)-spiroimidazolidine-4,4'-piperidine-3-phenyl-5-on] | 5.7 nM | inhibitory effect | 1.05 mg/kg | no effect on locomotor activity |  | 
Cc1ccc(CN2CCC3(CC2)C(=O)NCN3c2ccccc2)cc1 [Example 23, 1'-(4-methylbenzyl)-spiroimidazolidine-4,4'-piperidine-3-phenyl-5-on] | 52 nM | inhibitory effect | 9.5 mg/kg | no effect on locomotor activity |  | 
CN1CC[C@]23c4c5ccc(O)c4O[C@H]2[C@@H](O)C=C[C@H]3[C@H]1C5 [Morphine, reference compound] |  |  |  | strong locomotor activity promoting effect | strong rewarding effect | 13.7 mg/kg
O=C1OC2(CCN(Cc3ccccc3)CC2)c2ccccc21 [Reference example 15, 1'-benzyl-spiro[benzodihydrofuran-1(3H),4'-piperidine)-3-on, reference compound] | > 1000 nM |  |  |  |  | 
